Measured values reported in PubChem BioAssay (NCI).
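Dose response: 5 concentrations. Exposure: 48 h. Format: 96-well plates. Endpoint: linear interpolation; highest concentration if not reached. TGI: total growth inhibition.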

Assays:
Assay in all cases: NCI-60 cell line screen, 48 h
HCC-2998 colon = tested on: HCC-2998 colon
SK-MEL-2 melanoma = tested on: SK-MEL-2 melanoma
SNB-19 CNS = tested on: SNB-19 CNS
SR leukemia = tested on: SR leukemia
EKVX NSCLC = tested on: EKVX NSCLC
NCI-H23 lung = tested on: NCI-H23 lung
786-0 renal = tested on: 786-0 renal
BT-549 breast = tested on: BT-549 breast
OVCAR-3 ovarian = tested on: OVCAR-3 ovarian
NCI-H522 lung = tested on: NCI-H522 lung
SNB-75 CNS = tested on: SNB-75 CNS
DU-145 prostate = tested on: DU-145 prostate
SF-539 CNS = tested on: SF-539 CNS
ACHN renal = tested on: ACHN renal
MDA-N = tested on: MDA-N
HOP-62 NSCLC = tested on: HOP-62 NSCLC
CAKI-1 renal = tested on: CAKI-1 renal
OVCAR-4 ovarian = tested on: OVCAR-4 ovarian
SF-295 CNS = tested on: SF-295 CNS
MOLT-4 leukemia = tested on: MOLT-4 leukemia

SMILES | TGI (HCC-2998 colon) [µM] | TGI (SK-MEL-2 melanoma) [µM] | TGI (SNB-19 CNS) [µM] | TGI (SR leukemia) [µM] | TGI (EKVX NSCLC) [µM] | TGI (NCI-H23 lung) [µM] | TGI (786-0 renal) [µM] | TGI (BT-549 breast) [µM] | TGI (OVCAR-3 ovarian) [µM] | TGI (NCI-H522 lung) [µM] | TGI (SNB-75 CNS) [µM] | TGI (DU-145 prostate) [µM] | TGI (SF-539 CNS) [µM] | TGI (ACHN renal) [µM] | TGI (MDA-N) [µM] | TGI (HOP-62 NSCLC) [µM] | TGI (CAKI-1 renal) [µM] | TGI (OVCAR-4 ovarian) [µM] | TGI (SF-295 CNS) [µM] | TGI (MOLT-4 leukemia) [µM]
NC(N)=NS(=O)(=O)c1ccc(Nc2c3ccccc3nc3ccc(C(=O)Nc4ccc(S(N)(=O)=O)cc4)cc23)cc1 | > 100 | > 100 | > 100 | > 100 | > 100 | > 100 | > 100 | > 100 | > 100 | > 100 | > 100 | > 100 | > 100 | > 100 | > 100 | > 100 | > 100 | > 100 | > 100 | > 100
CCOC(=O)c1c(NS(=O)(=O)c2ccc(Br)cc2)sc2c1CCCC2 | 32.6 | 13.5 | 20.6 | 74.7 | 11 | 18.7 | 29.4 | 19.4 | 9.9 | 16.2 | 12.4 | > 58 | 19.8 | 14.6 | 52.9 | 14.1 | 33.7 | > 100 | 8.39 | 12.3
COC(=O)/C=C1/OC(c2ccc(Br)cc2)=C(Br)C1=O | 18.6 | 24.8 | 28.9 | 3.31 | 32 | 17.1 | 6.31 | 11.7 | 9.71 | 10.7 | 17.5 | 25.4 | 12.7 | 16.8 | 12.6 | 17.5 | 6.32 | 11.6 | 28.9 | 6.87
